Data from US20040192771A1, “Ether compounds and compositions for cholesterol management and related uses” (priority 2001, published 2004).
Where two headings read alike, the source gives them in different places.

Assays:
[1] = test system: primary rat hepatocytes; assay: Inhibition of lipid synthesis ([1-14C]-acetate incorporation) in primary cultures of rat hepatocytes; format: cell-based; details: Hepatocyte, total lipid synthesis, 4 hours incubation
Protocol: Compounds were tested for inhibition of lipid synthesis in primary cultures of rat hepatocytes. Male Sprague-Dawley rats were anesthetized with intraperitoneal injection of sodium pentobarbital (80 mg/kg). Rat hepatocytes were isolated essentially as described by the method of Seglen (Seglen, P. O. Hepatocyte suspensions and cultures as tools in experimental carcinogenesis. J. Toxicol. Environ. Health 1979, 5, 551-560). Hepatocytes were suspended in Dulbecco's Modified Eagles Medium containing 25 mM D-glucose, 14 mM HEPES, 5 mM L-glutamine, 5 mM leucine, 5 mM alanine, 10 mM lactate, 1 mM pyruvate, 0.2% bovine serum albumin, 17.4 mM non-essential amino acids, 20% fetal bovine serum, 100 nM insulin and 20 μg/mL gentamycin) and plated at a density of 1.5×10^5 cells/cm^2 on collagen-coated 96-well plates. Four hours after plating, media was replaced with the same media without serum. Cells were grown overnight to allow formation of monolayer cultures. Lipid synthesis incubation conditions were initially assessed to ensure the linearity of [1-^14C]-acetate incorporation into hepatocyte lipids for up to 4 hours. Hepatocyte lipid synthesis inhibitory activity was assessed during incubations in the presence of 0.25 μCi [1-^14C]-acetate/well (final radiospecific activity in assay is 1 Ci/mol) and 0, 1, 3, 10, 30, 100 or 300 μM of compounds for 4 hours. At the end of the 4-hour incubation period, medium was discarded and cells were washed twice with ice-cold phosphate buffered saline and stored frozen prior to analysis. To determine total lipid synthesis, 170 μl of MicroScint-E® and 50 μl water was added to each well to extract and partition the lipid soluble products to the upper organic phase containing the scintillant. Lipid radioactivity was assessed by scintillation spectroscopy in a Packard TopCount NXT.

[2] = test system: obese female Zucker rats; assay: Oral daily treatment of obese female Zucker rats for fourteen days; serum lipids and glycemic control indicators; format: in vivo; details: Rattus norvegicus, percent change from study prebleed; for change in vivo at 30 mg/kg/day: 30 mg/kg/day oral; for change in vivo at 100 mg/kg/day: 100 mg/kg/day oral; for change in vivo at 97 mg/kg/day: 97 mg/kg/day oral; for change in vivo at 70 mg/kg/day: 70 mg/kg/day oral
Protocol: In a number of different experiments, illustrative compounds of the invention are administered daily at a dose of up to 100 mg/kg to chow fed obese female Zucker rats for fourteen days in the morning by oral gavage in 1.5% carboxymethylcellulose/0.2% Tween 20 or 20% ethanol/80% polyethylene glycol (dosing vehicles). Animals are weighed daily. Animals are allowed free access to rodent chow and water throughout the study except on days of blood sampling where food is restricted for six hours prior to blood sampling. Blood glucose is determined after the 6 hour fast in the afternoon without anesthesia from a tail vein. Serum is also prepared from pretreatment blood samples subsequently obtained from the orbital venous plexus (with O2/CO2 anesthesia) and following the fourteenth dose at sacrifice from the heart following O2/CO2 anesthesia. Serums are assayed for lipoprotein cholesterol profiles, triglycerides, total cholesterol, Non HDL cholesterol, HDL cholesterol, the ratio of HDL cholesterol to that of Non HDL cholesterol, insulin, non esterified fatty acids, and beta hydroxy butyric acid. The percent body weight gain and the ratio of liver to body weight is also determined. These are shown as absolute values or as a percent change of the pretreatment values in Table C. [drawing 479] [drawing 480]

[3] = test system: obese female Zucker rats; assay: as above; format: in vivo; details: Rattus norvegicus, 168 h; percent change from study prebleed; week 1; 97 mg/kg/day oral; read-out: HDL-C
[4] = 168 h, week 1, read-out: Glucose
[5] = 168 h, week 1, read-out: Insulin
[6] = 168 h, week 1, read-out: Non-HDL-C
[7] = 336 h, week 2, read-out: Glucose
[8] = 336 h, week 2, read-out: Insulin
[9] = 336 h, week 2, read-out: Non-HDL-C

SMILES | IC50 [1] [µM] | change in vivo at 30 mg/kg/day [2, 4] [%] | change in vivo at 30 mg/kg/day ([2]; 168 h, week 1, read-out: HDL-C) [%] | change in vivo at 30 mg/kg/day [2, 5] [%] | change in vivo at 30 mg/kg/day [2, 6] [%] | change in vivo at 30 mg/kg/day ([2]; 168 h, week 1, read-out: TC) [%] | change in vivo at 30 mg/kg/day ([2]; 168 h, week 1, read-out: TG) [%] | change in vivo at 30 mg/kg/day [2, 7] [%] | change in vivo at 30 mg/kg/day ([2]; 336 h, week 2, read-out: HDL-C) [%] | change in vivo at 30 mg/kg/day [2, 8] [%] | change in vivo at 30 mg/kg/day [2, 9] [%] | change in vivo at 30 mg/kg/day ([2]; 336 h, week 2, read-out: TC) [%] | change in vivo at 30 mg/kg/day ([2]; 336 h, week 2, read-out: TG) [%] | change in vivo at 100 mg/kg/day [2, 4] [%] | change in vivo at 100 mg/kg/day ([2]; 168 h, week 1, read-out: HDL-C) [%] | change in vivo at 100 mg/kg/day [2, 5] [%] | change in vivo at 100 mg/kg/day [2, 6] [%] | change in vivo at 100 mg/kg/day ([2]; 168 h, week 1, read-out: TC) [%] | change in vivo at 100 mg/kg/day ([2]; 168 h, week 1, read-out: TG) [%] | change in vivo at 100 mg/kg/day [2, 7] [%] | other results
CC(C)(CO)CCCCCOCCCCC(C)(C)CO [Compound 130, 7-(6-Hydroxy-5,5-dimethylhexyloxy)-2,2-dimethylheptan-1-ol] | 8.4 | 6 | 71 | 25 | -26 | 41 | -66 | 6 | 105 | 13 | 17 | 77 | -47 |  |  |  |  |  |  |  | 
CC(CO)(CCCOCCCC(C)(CO)c1ccccc1)c1ccccc1 (stereo not drawn) [Compound 110, 5-(5-Hydroxy-4-methyl-4-phenylpentyloxy)-2-methyl-2-phenylpentan-1-ol] | 143 |  |  |  |  |  |  |  |  |  |  |  |  | 12 | 7 | -2 | -32 | -4 | -27 | 10 | change in vivo at 100 mg/kg/day ([2]; 336 h, week 2, read-out: HDL-C): 5%; change in vivo at 100 mg/kg/day [2, 8]: -6%; change in vivo at 100 mg/kg/day [2, 9]: -26%; change in vivo at 100 mg/kg/day ([2]; 336 h, week 2, read-out: TC): -4%; change in vivo at 100 mg/kg/day ([2]; 336 h, week 2, read-out: TG): -18%
CC(C)(CO)CCCCOCCCCC(C)(CO)c1ccccc1 (stereo not drawn) [Compound 129, 6-(6-Hydroxy-5-methyl-5-phenylhexyloxy)-2,2-dimethyl-hexan-1-ol] | 4.7 |  |  |  |  |  |  |  |  |  |  |  |  | 14 | 26 | 2 | -55 | -6 | -61 | 4 | change in vivo at 100 mg/kg/day ([2]; 336 h, week 2, read-out: HDL-C): 52%; change in vivo at 100 mg/kg/day [2, 8]: 6%; change in vivo at 100 mg/kg/day [2, 9]: -13%; change in vivo at 100 mg/kg/day ([2]; 336 h, week 2, read-out: TC): 26%; change in vivo at 100 mg/kg/day ([2]; 336 h, week 2, read-out: TG): -45%
CC(C)(CO)CCCCOCCCCC(C)(C)CO [Compound 128, 6-(6-Hydroxy-5,5-dimethylhexyloxy)-2,2dimethylhexan-1-ol] | 10 | 2 | 174 | 48 | -14 | 131 | -52 | 44 | 349 | 48 | 59 | 224 | -39 |  |  |  |  |  |  |  | 
CC(C)(CO)CCCC1CCC(CCCC(C)(C)CO)O1 (stereo not drawn) [Compound 138, 5-[5-(5-Hydroxy-4,4-dimethylpentyl)-tetrahydrofuran-2-yl]-2,2-dimethylpentan-1-ol] | 9 |  |  |  |  |  |  |  |  |  |  |  |  |  |  |  |  |  |  |  | change in vivo at 97 mg/kg/day [3]: 287%; change in vivo at 97 mg/kg/day [2, 4]: 35%; change in vivo at 97 mg/kg/day [2, 5]: 43%; change in vivo at 97 mg/kg/day [2, 6]: 11%; change in vivo at 97 mg/kg/day ([2]; 168 h, week 1, read-out: TC): 128%; change in vivo at 97 mg/kg/day ([2]; 168 h, week 1, read-out: TG): -49%; change in vivo at 97 mg/kg/day [2, 7]: 10%; change in vivo at 97 mg/kg/day ([2]; 336 h, week 2, read-out: HDL-C): 140%; change in vivo at 97 mg/kg/day [2, 8]: 69%; change in vivo at 97 mg/kg/day [2, 9]: 31%; change in vivo at 97 mg/kg/day ([2]; 336 h, week 2, read-out: TC): 74%; change in vivo at 97 mg/kg/day ([2]; 336 h, week 2, read-out: TG): -13%
CC(C)(Cc1cccc(Oc2cccc(CC(C)(C)C(=O)O)c2)c1)C(=O)O [Compound 135, 3-{3-[3-(2-Carboxy-2-methylpropyl)-phenoxy]-phenyl}-2,2-dimethylpropionic acid] | 52 |  |  |  |  |  |  |  |  |  |  |  |  |  |  |  |  |  |  |  | change in vivo at 70 mg/kg/day [2, 4]: -13%; change in vivo at 70 mg/kg/day ([2]; 168 h, week 1, read-out: HDL-C): 63%; change in vivo at 70 mg/kg/day [2, 5]: -43%; change in vivo at 70 mg/kg/day [2, 6]: -53%; change in vivo at 70 mg/kg/day ([2]; 168 h, week 1, read-out: TC): 3%; change in vivo at 70 mg/kg/day ([2]; 168 h, week 1, read-out: TG): -45%; change in vivo at 70 mg/kg/day [2, 7]: -16%; change in vivo at 70 mg/kg/day ([2]; 336 h, week 2, read-out: HDL-C): 31%; change in vivo at 70 mg/kg/day [2, 8]: 1%; change in vivo at 70 mg/kg/day [2, 9]: -41%; change in vivo at 70 mg/kg/day ([2]; 336 h, week 2, read-out: TC): -7%; change in vivo at 70 mg/kg/day ([2]; 336 h, week 2, read-out: TG): -52%
